Measurements as given in patent US20240269157A1, “COMPOSITIONS AND METHODS FOR OVERCOMING MICROENVIRONMENT-MEDIATED RESISTANCE VIA E-SELECTIN TARGETING” (GLYCOMIMETICS, INC., priority 2021, published 2024).

Legend:
[1] = tested on: HUVECs co-cultured with AML cells; assay: eNOS phosphorylation in HUVECs co-cultured with AML cells; assay type: cell-based; set-up: dose or concentration left out as unconfirmed
[2] = tested on: PDX-AML (Ven/HMA-resistant); assay: PDX-AML (Ven/HMA-resistant) model, FLT3-ITD, NRAS, GATA2 mutations; assay type: in vivo, NSG mice
Source text: To evaluate the efficacy of targeting E-selectin with Compound A to selectively eradicate leukemia cells resistant to venetoclax/HMA therapy in the bone marrow niche, an […] PDX-AML model derived from an AML patient harboring FLT3-ITD, NRAS, and GATA2 mutations who initially responded to venetoclax/HMA therapy and then relapsed was employed (FIG. 1). The model reflects the present situation for many elderly AML patients: initial sensitivity, followed by resistance to venetoclax/HMA and relapse.
Patient-derived PDX cells from an AML patient (2.5×10^6 cells/mouse) were transplanted via tail vein into NSG mice. Once AML cells began to engraft, mice were divided into four groups: vehicle treatment only; 40 mg/kg of Compound A; 50 mg/kg venetoclax+5.5 mg/kg 5-azacitidine; and a combination of 40 mg/kg Compound A and 50 mg/kg venetoclax+5.5 mg/kg 5-azacitidine. Drug treatment was performed from day 60 to day 82 post-transplantation.
Leukemia progression and tumor burden were evaluated weekly during the treatment period (for 22 days) by determining the frequency and absolute number of human CD45^+ cells in peripheral blood using flow cytometry analysis. The synergistic effects of the combinatorial treatment on AML-PDX mouse survival were determined by Kaplan-Meier analysis (FIG. 2). […] The median survival of the vehicle control, Compound A, venetoclax/HMA, and combination-treated (Compound A+venetoclax/HMA) groups of mice was 86, 91, 81.5, and 106.5 days, respectively.
At the time when all of the control group of mice were moribund (after 23 days of treatment), 3 mice per group were sacrificed for single cell proteomics (CyTOF) and immunohistochemistry analysis.

E-selectin = molecular target: T1, E-selectin (Homo sapiens, UniProt P16581); assay: Compound A binding to E-selectin (KD)
T1 sequence (P16581 22-610): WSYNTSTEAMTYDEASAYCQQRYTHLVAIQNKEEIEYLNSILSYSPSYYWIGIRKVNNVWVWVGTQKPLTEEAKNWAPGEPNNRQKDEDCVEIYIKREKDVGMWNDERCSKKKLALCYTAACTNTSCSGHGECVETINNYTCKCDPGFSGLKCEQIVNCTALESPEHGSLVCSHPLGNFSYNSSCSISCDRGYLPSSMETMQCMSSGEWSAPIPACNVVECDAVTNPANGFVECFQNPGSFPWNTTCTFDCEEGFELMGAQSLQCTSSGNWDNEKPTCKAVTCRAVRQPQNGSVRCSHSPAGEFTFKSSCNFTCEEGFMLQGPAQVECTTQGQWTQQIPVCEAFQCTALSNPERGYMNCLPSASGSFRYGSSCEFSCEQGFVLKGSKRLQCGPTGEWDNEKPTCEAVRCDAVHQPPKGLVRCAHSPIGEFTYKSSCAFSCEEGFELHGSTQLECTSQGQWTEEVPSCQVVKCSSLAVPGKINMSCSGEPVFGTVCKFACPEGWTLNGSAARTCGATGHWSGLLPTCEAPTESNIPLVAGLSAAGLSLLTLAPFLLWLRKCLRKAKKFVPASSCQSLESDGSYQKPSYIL

KG1 cells = assay: Real time qPCR of mRNAs encoding glycosyltransferases in KG1 cells; assay type: cell-based, human; set-up: key to AVG ΔCt (Ct(GOI) − Ave Ct (HKG)) Test Sample: Ct of gene of interest minus average housekeeping-gene Ct; key to Fold Change Test Sample/Control Sample: ratio of 2^(−ΔCt) treated / 2^(−ΔCt) control; settings: KG1, 100 nM 5-AZA, 96 hours
Method: To address the hypothesis that hypomethylation led to enhanced expression of glycosyltransferases, KG1 cells were cultured in the presence or absence of 100 nM 5-AZA for 96 hours followed by real time qPCR analysis of mRNAs encoding relevant glycosyltransferases. Fresh 5-AZA was added to the culture daily. Approximately 1×10^6 cells were pelleted by centrifugation at 250×g for 10 minutes then snap frozen on dry ice. Total RNA was extracted and purified using a QIAGEN RNeasy® Kit with an on-column DNase treatment step (QIAGEN Cat. No. 74104). The fold-change (2^(−Delta Ct)) is the normalized gene expression (2^(−Delta Ct)) in the 5-AZA treated sample divided the normalized gene expression (2^(−Delta Ct)) in the control sample.
In Table 1, fold-regulation represents fold-change results in a biologically meaningful way. Fold-change values greater than one indicate a positive- or an up-regulation, and the fold-regulation is equal to the fold-change. Fold-change values less than one indicate a negative or down-regulation, and the fold-regulation is the negative inverse of the fold-change. Additionally, p-values in Table 1 were calculated based on a Student's t-test of the replicate 2^(−Delta Ct) values for each gene in the control group and treatment groups.

`CCC1CC(C(=O)NCCNC(=O)CCOCCOCCOCCOCCOCCOCCOCCOCCOCCOCCOCCOC)C[C@@H](O[C@@H]2OC(CO)[C@H](O)C(O[C@@H](CC3CCCCC3)C(=O)O)C2NC(C)=O)[C@@H]1OC1O[C@@H](C)[C@H](O)C(O)[C@@H]1O` (stereo partly shown) [Compound A] was tested, and the “phosphorylation of the enzyme eNOS” value [1] was “attenuated”, the median survival ([2]; 40 mg/kg Compound A, 50 mg/kg venetoclax+5.5 mg/kg 5-azacitidine, day 60 to 82) was 91 days and the “anti-leukemia efficacy of venetoclax/HMA” value ([2]; CyTOF, in vivo administration) was “enhanced”. The “leukemia cell infiltration in bone marrow, spleen, lung, and liver” value ([2]; histology, Compound A only compared to normal control mice) was “increased”, the “mobilization of human AML cells” value ([2]; mouse, in vivo) was “mobilized” and the Kd (E-selectin) was about 450 nM.
In the case of `Nc1ncn([C@@H]2O[C@H](CO)[C@@H](O)[C@H]2O)c(=O)n1` [5-azacitidine], the “2^-ΔCt Test Sample” value (KG1 cells; ACTB) is reported as 5.5E−01, the “AVG ΔCt (Ct(GOI) − Ave Ct (HKG)) Test Sample” value (shortened to “AVG ΔCt”) (KG1 cells; ACTB) is reported as 0.87 and the “Fold Change Test Sample/Control Sample” value (KG1 cells; ACTB) is reported as 0.58. The “Fold Up- or Down-Regulation Test Sample/Control Sample” value (KG1 cells; ACTB) was −1.73, the “2^-ΔCt Test Sample” value (KG1 cells; B3GNT5) was 2.3E−03 and the “AVG ΔCt” value (KG1 cells; B3GNT5) was 8.74. For the same compound, the “Fold Change Test Sample/Control Sample” value (KG1 cells; B3GNT5) was 2.36, the “Fold Up- or Down-Regulation Test Sample/Control Sample” value (KG1 cells; B3GNT5) was 2.36 and the “2^-ΔCt Test Sample” value (KG1 cells; CDKN1C) was 6.1E−04. The “AVG ΔCt” value (KG1 cells; CDKN1C) was 10.69, the “Fold Change Test Sample/Control Sample” value (KG1 cells; CDKN1C) was 1.24 and the “Fold Up- or Down-Regulation Test Sample/Control Sample” value (KG1 cells; CDKN1C) was 1.24. For the same compound, the “2^-ΔCt Test Sample” value (KG1 cells; FUT3) was 3.3E−05, the “AVG ΔCt” value (KG1 cells; FUT3) was 14.89 and the “Fold Change Test Sample/Control Sample” value (KG1 cells; FUT3) was 1.42. For the same compound, the “Fold Up- or Down-Regulation Test Sample/Control Sample” value (KG1 cells; FUT3) was 1.42, the “2^-ΔCt Test Sample” value (KG1 cells; FUT4) was 3.6E−05 and the “AVG ΔCt” value (KG1 cells; FUT4) was 14.78. For the same compound, the “Fold Change Test Sample/Control Sample” value (KG1 cells; FUT4) was 0.98, the “Fold Up- or Down-Regulation Test Sample/Control Sample” value (KG1 cells; FUT4) was −1.02 and the “2^-ΔCt Test Sample” value (KG1 cells; FUT5) was 3.3E−05. For the same compound, the “AVG ΔCt” value (KG1 cells; FUT5) was 14.89, the “Fold Change Test Sample/Control Sample” value (KG1 cells; FUT5) was 1.03 and the “Fold Up- or Down-Regulation Test Sample/Control Sample” value (KG1 cells; FUT5) was 1.03. For the same compound, the “2^-ΔCt Test Sample” value (KG1 cells; FUT6) was 9.3E−05, the “AVG ΔCt” value (KG1 cells; FUT6) was 13.39 and the “Fold Change Test Sample/Control Sample” value (KG1 cells; FUT6) was 3.27. The “Fold Up- or Down-Regulation Test Sample/Control Sample” value (KG1 cells; FUT6) was 3.27, the “2^-ΔCt Test Sample” value (KG1 cells; FUT7) was 3.0E−04 and the “AVG ΔCt” value (KG1 cells; FUT7) was 11.71. The “Fold Change Test Sample/Control Sample” value (KG1 cells; FUT7) was 10.15, the “Fold Up- or Down-Regulation Test Sample/Control Sample” value (KG1 cells; FUT7) was 10.15 and the “2^-ΔCt Test Sample” value (KG1 cells; FUT9) was 4.4E−05. The “AVG ΔCt” value (KG1 cells; FUT9) was 14.46, the “Fold Change Test Sample/Control Sample” value (KG1 cells; FUT9) was 1.92 and the “Fold Up- or Down-Regulation Test Sample/Control Sample” value (KG1 cells; FUT9) was 1.92. For the same compound, the “2^-ΔCt Test Sample” value (KG1 cells; GAPDH) was 1.8E+00, the “AVG ΔCt” value (KG1 cells; GAPDH) was −0.87 and the “Fold Change Test Sample/Control Sample” value (KG1 cells; GAPDH) was 1.73. The “Fold Up- or Down-Regulation Test Sample/Control Sample” value (KG1 cells; GAPDH) was 1.73, the “2^-ΔCt Test Sample” value (KG1 cells; ST3GAL3) was 5.0E−04 and the “AVG ΔCt” value (KG1 cells; ST3GAL3) was 10.95. For the same compound, the “Fold Change Test Sample/Control Sample” value (KG1 cells; ST3GAL3) was 1.07, the “Fold Up- or Down-Regulation Test Sample/Control Sample” value (KG1 cells; ST3GAL3) was 1.07 and the “2^-ΔCt Test Sample” value (KG1 cells; ST3GAL4) was 6.9E−03. For the same compound, the “AVG ΔCt” value (KG1 cells; ST3GAL4) was 7.17, the “Fold Change Test Sample/Control Sample” value (KG1 cells; ST3GAL4) was 2.78 and the “Fold Up- or Down-Regulation Test Sample/Control Sample” value (KG1 cells; ST3GAL4) was 2.78. For the same compound, the “2^-ΔCt Test Sample” value (KG1 cells; ST3GAL6) was 2.0E−02, the “AVG ΔCt” value (KG1 cells; ST3GAL6) was 5.66 and the “Fold Change Test Sample/Control Sample” value (KG1 cells; ST3GAL6) was 2.55. The “Fold Up- or Down-Regulation Test Sample/Control Sample” value (KG1 cells; ST3GAL6) was 2.55.
